# Reference: PMC11091072, “Targeting bacterial nickel transport with aspergillomarasmine A suppresses virulence-associated Ni-dependent enzymes” (Nature Communications, 2024)
# Values joined by “and” are separate entries in the source; they are usually repeats but may differ in a detail not shown here. Identical values can stand only once. Like-named read-outs stand apart in the source and are kept apart here.
# How the values were obtained:
# [1] = system: K. pneumoniae urease activity (whole cell); test: microbe, parasite or virus in culture; format: cell-based, Klebsiella pneumoniae ATCC 33495; conditions: artificial urine, 24 h; for K. pneumoniae urease-dependent pH change (pH): 37 °C
# [2] = system: S. aureus urease activity (whole cell); format: cell-based, Staphylococcus aureus; conditions: artificial urine, 24 h; for Staphylococcus aureus urease-dependent pH change (pH): 37 °C
# [3] = system: struvite crystallization in K. pneumoniae cultures; test: Struvite crystal nucleation in artificial urine cultures; format: cell-based, Klebsiella pneumoniae
# Text: A The metal complexed structure, selectivity, and affinity of AMA. The constituents of AMA are labeled L-aspartate (L-Asp) and 2,3-diaminopropionic acid (APA). B Dose-response urease inhibition assays in K. pneumoniae. […] C Dose-response effect of AMA and Zn-AMA on the nucleation of struvite crystals in K. pneumoniae cultures grown in artificial urine. Crystals were examined microscopically in 96-well plates and visually quantified. […] The data represent the representative mean of two replicates. D Quantification of planktonic growth and crystal violet-stained biofilms of K. pneumoniae grown in artificial urine and varying concentrations of Zn-AMA. […] Data represent mean ± s.d. of four technical replicates. E ICP-MS quantification of cellular ^60Ni and ^66Zn content in K. pneumoniae untreated or treated with 200 μM AMA, or Zn-AMA. […] Whole-cell hydrogenase assays were performed by adding benzyl viologen (BV) at a final concentration of 1 mg/mL and monitoring its reduction at an absorbance of 630 nm. Data represent the mean of two technical replicates.
# FIG S5 Microscopic detection of struvite crystals grown in artificial urine cultures of K. pneumoniae. Top row, the concentration-dependent effect of AMA on struvite formation. Bottom row, the concentration-dependent effect of Zn-AMA on struvite formation.
# Bacteria were grown in 96 well flat-bottom plates for 24h at 37 °C. Brightfield micrographs were taken with a BioTek Cytation cell imaging reader at 4x magnification. Four images were taken per well and were digitally stitched to generate whole-well images. […]
# [4] = system: [NiFe]-hydrogenase (Hyd-3); test: Whole-cell [NiFe] hydrogenase assay (benzyl viologen reduction); format: cell-based, Klebsiella pneumoniae; design: Benzyl viologen hydrogenase assay (activity): unit not given here
# Text: We reasoned that disruption of Ni^2+ uptake and homeostasis should also perturb the activity of other Ni-dependent enzymes. To examine this possibility, we tested the effects of free AMA and Zn-AMA on Ni-dependent hydrogen metabolism in bacteria. […] K. pneumoniae produces a single [NiFe]-hydrogenase (Hyd-3) as part of the H2-evolving formate hydrogenlyase (FHL) complex and is encoded by the hyc operon (Fig S8)[21]. […] To measure [NiFe]-hydrogenase-catalyzed H2 […], benzyl viologen was used as an artificial electron acceptor, as previously described. Although Hyd-3 is involved in the evolution of H2, previous work in E. coli has shown that it is responsible for 90% of the hydrogen-dependent benzyl viologen reduction in crude extracts and whole-cell assays[41]–[44].
# The whole-cell hydrogenase activity in K. pneumoniae was based on a modified method described by Lacasse et al.[41] […] The cell suspension was diluted 1/100 in LB supplemented with 0.8% glucose, 10 mM MgCl2, and 10 mM potassium phosphate, pH 7.2. […] Following an 18-hour incubation, whole-cell [NiFe] hydrogenase activity was monitored by adding benzyl viologen (1 mg/mL) to each well, followed by continuous monitoring of the change in absorbance at 630 nm using a BioTek Synergy H1 microplate reader in an anaerobic glove box.
# urease = biological target: T1, urease (Klebsiella pneumoniae subsp. pneumoniae, UniProt A6TE40+A6TE41+A6TE42); test: Urease activity in cell-free extracts (NH3 release, indophenol-hypochlorite); format: biochemical
# T1 construct: endogenous in cells; host or cells: Klebsiella pneumoniae (ATCC 33495), sonicated and cleared lysate
# Method: The cells were subsequently lysed by sonication, and cell debris was removed with centrifugation (20,000 × g, 10 min). […] Liberated NH3 was quantified using the indophenol-hypocholorite reaction as previously described. The total amount of protein was quantified by Bradford assay using bovine serum albumin as standard. Each assay was performed in duplicate wells.
# FIG S7 Evaluation of Zn-AMA as a direct inhibitor of urease. A) Checkerboard analysis of Zn-AMA and AHA on urease activity of K. […]
# Dose- […]
# response curves of fluorofamide, Zn-AMA, and AMA inhibiting the urease-catalyzed release of NH3 quantified with indophenol hypochlorite. The rates of NH3 production were measured over 20 min and were normalized to total protein concentration. Experiments were performed in duplicate. Individual replicates are shown as colored circles.
# S. aureus = format: cell-based, Staphylococcus aureus; conditions: 200 μM, 24 h
# T1 sequence (A6TE41 whole entry): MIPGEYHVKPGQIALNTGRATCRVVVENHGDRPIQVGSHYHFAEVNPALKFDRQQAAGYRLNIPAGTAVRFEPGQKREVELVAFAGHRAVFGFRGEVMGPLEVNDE
# T1 sequence (A6TE40 whole entry): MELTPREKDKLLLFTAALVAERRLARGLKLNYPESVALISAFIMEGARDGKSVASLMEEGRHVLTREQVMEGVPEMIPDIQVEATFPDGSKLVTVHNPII
# T1 sequence (A6TE42 whole entry): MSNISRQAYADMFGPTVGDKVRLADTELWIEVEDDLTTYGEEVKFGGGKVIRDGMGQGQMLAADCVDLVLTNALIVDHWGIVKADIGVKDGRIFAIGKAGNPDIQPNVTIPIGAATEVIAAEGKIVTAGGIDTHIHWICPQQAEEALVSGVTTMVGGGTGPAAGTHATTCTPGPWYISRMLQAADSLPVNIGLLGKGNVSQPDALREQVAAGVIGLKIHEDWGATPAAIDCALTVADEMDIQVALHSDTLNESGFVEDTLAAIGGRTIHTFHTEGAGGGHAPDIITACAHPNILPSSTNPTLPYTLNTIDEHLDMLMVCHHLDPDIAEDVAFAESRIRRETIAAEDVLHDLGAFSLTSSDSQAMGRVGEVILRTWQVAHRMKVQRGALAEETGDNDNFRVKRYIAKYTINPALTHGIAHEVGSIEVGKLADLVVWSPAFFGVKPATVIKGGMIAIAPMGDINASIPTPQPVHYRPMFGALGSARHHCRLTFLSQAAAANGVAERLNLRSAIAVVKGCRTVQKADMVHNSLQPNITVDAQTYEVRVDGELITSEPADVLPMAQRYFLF
structure (smiles),measurement,setting,value
"N[C@@H](CN[C@@H](CN[C@@H](CC(=O)O)C(=O)O)C(=O)O)C(=O)O [AMA, aspergillomarasmine A]",K. pneumoniae urease-dependent pH change (pH),[1]; 0.19 μM,8.15 and 8.19
same,K. pneumoniae urease-dependent pH change (pH),[1]; 0.39 μM,8.16 and 8.12
same,K. pneumoniae urease-dependent pH change (pH),[1]; 0.78 μM,8.08 and 8.03
same,K. pneumoniae urease-dependent pH change (pH),[1]; 1.56 μM,7.97 and 7.75
same,K. pneumoniae urease-dependent pH change (pH),[1]; 3.12 μM,7.86 and 7.57
same,K. pneumoniae urease-dependent pH change (pH),[1]; 6.25 μM,7.81 and 7.46
same,K. pneumoniae urease-dependent pH change (pH),[1]; 12.5 μM,7.78 and 7.33
same,K. pneumoniae urease-dependent pH change (pH),[1]; 25 μM,7.75 and 7.40
same,K. pneumoniae urease-dependent pH change (pH),[1]; 50 μM,7.87 and 7.54
same,K. pneumoniae urease-dependent pH change (pH),[1]; 100 μM,8.02 and 7.77
same,K. pneumoniae urease-dependent pH change (pH),[1]; 200 μM,8.03 and 8.04
same,effect on urease activity,[1]; K. pneumoniae,did not significantly affect urease activity
same,Staphylococcus aureus urease-dependent pH change (pH),[2]; 0.19 μM,6.95 and 7.25
same,Staphylococcus aureus urease-dependent pH change (pH),[2]; 0.39 μM,6.96 and 7.10
same,Staphylococcus aureus urease-dependent pH change (pH),[2]; 0.78 μM,6.77 and 6.94
same,Staphylococcus aureus urease-dependent pH change (pH),[2]; 1.56 μM,6.69 and 6.68
same,Staphylococcus aureus urease-dependent pH change (pH),[2]; 3.12 μM,6.42 and 6.51
same,Staphylococcus aureus urease-dependent pH change (pH),[2]; 6.25 μM,6.40 and 6.45
same,Staphylococcus aureus urease-dependent pH change (pH),[2]; 12.5 μM,6.33 and 6.40
same,Staphylococcus aureus urease-dependent pH change (pH),[2]; 25 μM,6.33 and 6.38
same,Staphylococcus aureus urease-dependent pH change (pH),[2]; 50 μM,6.38
same,Staphylococcus aureus urease-dependent pH change (pH),[2]; 100 μM,6.31 and 6.37
same,Staphylococcus aureus urease-dependent pH change (pH),[2]; 200 μM,6.35 and 6.38
same,effect on urease activity,[2]; S. aureus,inhibited urease activity similarly
same,Struvite crystal quantification (count),[3]; 3.12 μM,59 and 42
same,Struvite crystal quantification (count),[3]; 6.25 μM,99 and 82
same,Struvite crystal quantification (count),[3]; 12 μM,74 and 95
same,Struvite crystal quantification (count),[3]; 25 μM,68 and 103
same,Struvite crystal quantification (count),[3]; 50 μM,72 and 91
same,Struvite crystal quantification (count),[3]; 100 μM,70 and 83
same,Struvite crystal quantification (count),[3]; 200 μM,36 and 49
same,Benzyl viologen hydrogenase assay (activity),[4]; 1.5625 μM,10.01 and 8.89
same,Benzyl viologen hydrogenase assay (activity),[4]; 3.125 μM,10.26 and 7.90
same,Benzyl viologen hydrogenase assay (activity),[4]; 6.25 μM,10.55 and 8.44
same,Benzyl viologen hydrogenase assay (activity),[4]; 12.5 μM,10.31 and 8.59
same,Benzyl viologen hydrogenase assay (activity),[4]; 25 μM,10.36 and 8.93
same,Benzyl viologen hydrogenase assay (activity),[4]; 50 μM,9.47 and 8.79
same,Benzyl viologen hydrogenase assay (activity),[4]; 100 μM,9.67 and 7.85
same,Benzyl viologen hydrogenase assay (activity),[4]; 200 μM,9.18 and 9.08
same,Benzyl viologen hydrogenase assay (activity),[4]; 400 μM,9.38 and 7.95
same,effect on [NiFe]-hydrogenase activity,"[4]; LB-glucose, anaerobic, whole cell",no impact on [NiFe]-hydrogenase activity
same,Specific activity (cell-free indophenol urease assay),urease; AMA 0.007813 mM,42.56 nmol/min/mg and 44.10 nmol/min/mg
same,Specific activity (cell-free indophenol urease assay),urease; AMA 0.015625 mM,40.68 nmol/min/mg and 41.88 nmol/min/mg
same,Specific activity (cell-free indophenol urease assay),urease; AMA 0.03125 mM,40.85 nmol/min/mg and 42.39 nmol/min/mg
same,Specific activity (cell-free indophenol urease assay),urease; AMA 0.0625 mM,40.85 nmol/min/mg
same,Specific activity (cell-free indophenol urease assay),urease; AMA 0.125 mM,39.49 nmol/min/mg and 40.51 nmol/min/mg
same,Specific activity (cell-free indophenol urease assay),urease; AMA 0.25 mM,37.95 nmol/min/mg and 38.29 nmol/min/mg
same,Specific activity (cell-free indophenol urease assay),urease; AMA 0.5 mM,35.56 nmol/min/mg and 36.75 nmol/min/mg
same,Specific activity (cell-free indophenol urease assay),urease; AMA 1 mM,35.04 nmol/min/mg and 35.73 nmol/min/mg
same,direct inhibition of urease,urease; cell-free extract,excluded the direct inhibition of urease
same,bacterial viability (spot dilutions),S. aureus,not lethal to bacteria
